{"source": "ChEMBL document CHEMBL6083236", "about": "“Identification of novel diarylpyrimidine derivatives as potent HIV-1 non-nucleoside reverse transcriptase inhibitors against wild-type and K103N mutant viruses” (Eur J Med Chem, 2024)", "key": {"[1]": {"system": "Human immunodeficiency virus 1", "test": "Antiviral activity against HIV1 harboring Y181C mutant infected in human MT4 cells assessed as reduction in virus induced cytopathic effect incubated for 5 days by Spectrophotometric based MTT assay", "type": "functional, organism-based", "details": "Human immunodeficiency virus 1, MT4, 120 h"}, "[2]": {"system": "Human immunodeficiency virus 1", "test": "Antiviral activity against HIV1 harboring Y188L mutant infected in human MT4 cells assessed as reduction in virus induced cytopathic effect incubated for 5 days by Spectrophotometric based MTT assay", "type": "functional, organism-based", "details": "Human immunodeficiency virus 1, MT4, 120 h"}, "[3]": {"test": "Selectivity index, ratio of CC50 for cytotoxicity against human MT4 cells to EC50 for antiviral activity against wild type HIV1 IIIB infected in human MT4 cells", "details": "MT4 cells"}, "[4]": {"system": "Human immunodeficiency virus 1", "test": "Antiviral activity against wild type HIV1 IIIB infected in human MT4 cells assessed as reduction in virus induced cytopathic effect incubated for 5 days by Spectrophotometric based MTT assay", "type": "functional, organism-based", "details": "Human immunodeficiency virus 1, IIIB, MT4, 120 h"}, "[5]": {"system": "Human immunodeficiency virus 1", "test": "Antiviral activity against HIV1 harboring L100I mutant infected in human MT4 cells assessed as reduction in virus induced cytopathic effect incubated for 5 days by Spectrophotometric based MTT assay", "type": "functional, organism-based", "details": "Human immunodeficiency virus 1, MT4, 120 h"}, "[6]": {"molecular_target": "Human immunodeficiency virus type 1 reverse transcriptase (Human immunodeficiency virus 1, UniProt Q72547)", "test": "Inhibition of wild type HIV1 reverse transcriptase assessed as inhibition of biotin deoxyuridine triphosphate incorporation into cDNA using DIG-labelled dNTP preincubated with compound for 1 hr followed by substrate addition in presence of biotin-labeled dNTPs by ELISA analysis"}, "[7]": {"system": "Human immunodeficiency virus 1", "test": "Antiviral activity against HIV1 harboring E138K mutant infected in human MT4 cells assessed as reduction in virus induced cytopathic effect incubated for 5 days by Spectrophotometric based MTT assay", "type": "functional, organism-based", "details": "Human immunodeficiency virus 1, MT4, 120 h"}, "[8]": {"system": "Human immunodeficiency virus 1", "test": "Antiviral activity against HIV1 harboring RES056 mutant infected in human MT4 cells assessed as reduction in virus induced cytopathic effect incubated for 5 days by Spectrophotometric based MTT assay", "type": "functional, organism-based", "details": "Human immunodeficiency virus 1, RES056, MT4, 120 h"}, "[9]": {"test": "Selectivity index, ratio of CC50 for cytotoxicity against human MT4 cells to EC50 for antiviral activity against HIV1 RES056 mutant infected in human MT4 cells", "details": "MT4 cells"}, "[10]": {"system": "Human immunodeficiency virus 1", "test": "Antiviral activity against HIV1 harboring F227L/V106A mutant infected in human MT4 cells assessed as reduction in virus induced cytopathic effect incubated for 5 days by Spectrophotometric based MTT assay", "type": "functional, organism-based", "details": "Human immunodeficiency virus 1, MT4, 120 h"}, "[11]": {"system": "Human immunodeficiency virus 1", "test": "Antiviral activity against HIV1 harboring K103 N mutant infected in human MT4 cells assessed as reduction in virus induced cytopathic effect incubated for 5 days by Spectrophotometric based MTT assay", "type": "functional, organism-based", "details": "Human immunodeficiency virus 1, MT4, 120 h"}, "[12]": {"system": "MT4", "test": "Cytotoxicity against human MT4 cells assessed as reduction in cell viability incubated for 5 days by Spectrophotometric based MTT assay", "type": "functional", "details": "MT4, 120 h, time 5 day"}}}
{"smiles": "Cc1cc(/C=C/C#N)cc(C)c1Oc1ccnc(Nc2ccc(N3CCN(S(C)(=O)=O)C3=O)c(C#N)c2)n1", "values": [{"measurement": "EC50", "setting": "[1]", "value": 0.014, "unit": "µM"}, {"measurement": "EC50", "setting": "[2]", "value": 1.77, "unit": "µM"}, {"measurement": "selectivity ratio", "setting": "[3]", "value": 29900}, {"measurement": "EC50", "setting": "[4]", "value": 0.001, "unit": "µM"}, {"measurement": "EC50", "setting": "[5]", "value": 0.006, "unit": "µM"}, {"measurement": "IC50", "setting": "[6]", "value": 0.24, "unit": "µM"}, {"measurement": "EC50", "setting": "[7]", "value": 0.038, "unit": "µM"}, {"measurement": "EC50", "setting": "[8]", "value": 0.18, "unit": "µM"}, {"measurement": "selectivity ratio", "setting": "[9]", "value": 192}, {"measurement": "EC50", "setting": "[10]", "value": 0.11, "unit": "µM"}, {"measurement": "EC50", "setting": "[11]", "value": 0.002, "unit": "µM"}, {"measurement": "CC50", "setting": "[12]", "value": 35.3, "unit": "µM"}]}
{"smiles": "Cc1cc(/C=C/C#N)cc(C)c1Oc1ccnc(Nc2ccc(N3CCN(S(N)(=O)=O)CC3)c(C#N)c2)n1", "values": [{"measurement": "EC50", "setting": "[1]", "value": 0.032, "unit": "µM"}, {"measurement": "EC50", "setting": "[2]", "value": 1.17, "unit": "µM"}, {"measurement": "selectivity ratio", "setting": "[3]", "value": 1540}, {"measurement": "EC50", "setting": "[4]", "value": 0.004, "unit": "µM"}, {"measurement": "EC50", "setting": "[5]", "value": 0.007, "unit": "µM"}, {"measurement": "IC50", "setting": "[6]", "value": 0.13, "unit": "µM"}, {"measurement": "EC50", "setting": "[7]", "value": 0.029, "unit": "µM"}, {"measurement": "EC50", "setting": "[8]", "value": 0.23, "unit": "µM"}, {"measurement": "selectivity ratio", "setting": "[9]", "value": 26}, {"measurement": "EC50", "setting": "[10]", "value": 0.013, "unit": "µM"}, {"measurement": "EC50", "setting": "[11]", "value": 0.003, "unit": "µM"}, {"measurement": "CC50", "setting": "[12]", "value": 5.88, "unit": "µM"}]}
